What was measured:
persian speedwell [1] = assay: Test Example 5: herbicidal effect by foliage application, plastic box (Table 20, symbol R); format: in vivo, Persian speedwell (Veronica persica); conditions: foliage application, 320 g/ha
Outline: (§1)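 Plants were sown into sterilized diluvial soil under about 1.5 cm cover and kept in a greenhouse at 25° C. to 30° C. Fourteen days on, foliage received an even spray of the diluted emulsion. Herbicidal or crop effect was judged three weeks afterwards.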

lambsquarters [2] = assay: Test Example 4: herbicidal effect by soil treatment (Table 19, symbol O); format: in vivo, lambsquarters (Chenopodium album)
Outline: (§2)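 In this soil treatment, the formulated compound reached the seeds only through the soil: seeds were buried about 1.5 cm deep in sterilized diluvial soil, then the diluted emulsion was sprayed over the surface. After three weeks at 25° C. to 30° C. in a greenhouse, effects were graded on criteria from an earlier test.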

barnyard grass [3] = assay: Test Example 3: herbicidal effect by foliage application, Wagner pot (Table 18, symbol H); format: in vivo, barnyard grass (Echinochloa crus-galli); conditions: 320 g/ha
Outline: (§3)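 Plants were sown in alluvial soil held under 0.1–0.5 cm standing water and grown 14 days in a greenhouse at 25–30 °C. An emulsifiable formulation, water-diluted to the set dose, was then sprayed onto the foliage, and effects were scored three weeks later using previously defined criteria.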

southern crabgrass [4] = assay: Test Example 5: herbicidal effect by foliage application, plastic box (Table 20, symbol F); format: in vivo, southern crabgrass (Digitaria ciliaris); conditions: foliage application, 320 g/ha
Outline: as §1

Japanese bulrush = assay: Test Example 2: herbicidal activity, application during weed generation under submerged conditions (Table 17, symbol B); format: in vivo, Japanese bulrush (Schoenoplectus juncoides); conditions: AAH 320 g/ha; application during weed generation, submerged conditions
Outline: (§4)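 Effect on each weed is rated three weeks post-treatment, using the same scoring criteria as the preceding test. Plants grow from mixed-sown seed in flooded alluvial soil (4 cm water) at 25° C. to 30° C., and are treated at one to two leaves with diluted emulsion dropped onto the water.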

wild oat [5] = assay: Test Example 5: herbicidal effect by foliage application, plastic box (Table 20, symbol I); format: in vivo, wild oat (Avena fatua); conditions: foliage application, 320 g/ha
Outline: as §1

windgrass [6] = assay: Test Example 5: herbicidal effect by foliage application, plastic box (Table 20, symbol L); format: in vivo, windgrass (Apera spica-venti); conditions: foliage application, 320 g/ha
Outline: as §1

blackgrass [7] = assay: Test Example 5: herbicidal effect by foliage application, plastic box (Table 20, symbol J); format: in vivo, blackgrass (Alopecurus myosuroides); conditions: foliage application, 320 g/ha
Outline: as §1

Italian ryegrass [8] = assay: Test Example 4: herbicidal effect by soil treatment (Table 19, symbol K); format: in vivo, Italian ryegrass (Lolium multiflorum)
Outline: as §2

oval-leafed pondweed = assay: Test Example 2: herbicidal activity, application during weed generation under submerged conditions (Table 17, symbol C); format: in vivo, oval-leafed pondweed (Monochoria vaginalis); conditions: AAH 320 g/ha; application during weed generation, submerged conditions
Outline: as §4

lambsquarters [9] = assay: Test Example 5: herbicidal effect by foliage application, plastic box (Table 20, symbol O); format: in vivo, lambsquarters (Chenopodium album); conditions: foliage application, 320 g/ha
Outline: as §1

velvetleaf [10] = assay: Test Example 5: herbicidal effect by foliage application, plastic box (Table 20, symbol M); format: in vivo, velvetleaf (Abutilon theophrasti); conditions: foliage application, 320 g/ha
Outline: as §1

southern crabgrass [11] = assay: Test Example 4: herbicidal effect by soil treatment (Table 19, symbol F); format: in vivo, southern crabgrass (Digitaria ciliaris)
Outline: as §2

false cleavers [12] = assay: Test Example 5: herbicidal effect by foliage application, plastic box (Table 20, symbol Q); format: in vivo, false cleavers (Galium spurium); conditions: foliage application, 320 g/ha
Outline: as §1

Chinese sprangletop = assay: Test Example 3: herbicidal effect by foliage application, Wagner pot (Table 18, symbol D); format: in vivo, chinese sprangletop (Leptochloa chinensis); conditions: 320 g/ha
Outline: as §3

velvetleaf [13] = assay: Test Example 4: herbicidal effect by soil treatment (Table 19, symbol M); format: in vivo, velvetleaf (Abutilon theophrasti)
Outline: as §2

wild oat [14] = assay: Test Example 4: herbicidal effect by soil treatment (Table 19, symbol I); format: in vivo, wild oat (Avena fatua)
Outline: as §2

barnyard grass [15] = assay: Test Example 5: herbicidal effect by foliage application, plastic box (Table 20, symbol H); format: in vivo, barnyard grass (Echinochloa crus-galli); conditions: foliage application, 320 g/ha
Outline: as §1

rice flat sedge = assay: Test Example 3: herbicidal effect by foliage application, Wagner pot (Table 18, symbol E); format: in vivo, rice flat sedge (Cyperus iria); conditions: 320 g/ha
Outline: as §3

windgrass [16] = assay: Test Example 4: herbicidal effect by soil treatment (Table 19, symbol L); format: in vivo, windgrass (Apera spica-venti)
Outline: as §2

barnyard grass [17] = assay: Test Example 4: herbicidal effect by soil treatment (Table 19, symbol H); format: in vivo, barnyard grass (Echinochloa crus-galli)
Outline: as §2

redroot pigweed [18] = assay: Test Example 4: herbicidal effect by soil treatment (Table 19, symbol N); format: in vivo, redroot pigweed (Amaranthus retroflexus)
Outline: as §2

false cleavers [19] = assay: Test Example 4: herbicidal effect by soil treatment (Table 19, symbol Q); format: in vivo, false cleavers (Galium spurium)
Outline: as §2

green foxtail [20] = assay: Test Example 4: herbicidal effect by soil treatment (Table 19, symbol G); format: in vivo, green foxtail (Setaria viridis)
Outline: as §2

Italian ryegrass [21] = assay: Test Example 5: herbicidal effect by foliage application, plastic box (Table 20, symbol K); format: in vivo, Italian ryegrass (Lolium multiflorum); conditions: foliage application, 320 g/ha
Outline: as §1

chickweed [22] = assay: Test Example 4: herbicidal effect by soil treatment (Table 19, symbol P); format: in vivo, common chickweed (Stellaria media)
Outline: as §2

blackgrass [23] = assay: Test Example 4: herbicidal effect by soil treatment (Table 19, symbol J); format: in vivo, blackgrass (Alopecurus myosuroides); conditions: 320 g/ha
Outline: as §2

persian speedwell [24] = assay: Test Example 4: herbicidal effect by soil treatment (Table 19, symbol R); format: in vivo, Persian speedwell (Veronica persica)
Outline: as §2

green foxtail [25] = assay: Test Example 5: herbicidal effect by foliage application, plastic box (Table 20, symbol G); format: in vivo, green foxtail (Setaria viridis); conditions: foliage application, 320 g/ha
Outline: as §1

late watergrass = assay: Test Example 2: herbicidal activity, application during weed generation under submerged conditions (Table 17, symbol A); format: in vivo, late watergrass (Echinochloa oryzicola); conditions: AAH 320 g/ha; application during weed generation, submerged conditions
Outline: as §4

redroot pigweed [26] = assay: Test Example 5: herbicidal effect by foliage application, plastic box (Table 20, symbol N); format: in vivo, redroot pigweed (Amaranthus retroflexus); conditions: foliage application, 320 g/ha, evaluated three weeks after application
Outline: as §1

chickweed [27] = assay: Test Example 5: herbicidal effect by foliage application, plastic box (Table 20, symbol P); format: in vivo, common chickweed (Stellaria media); conditions: foliage application, 320 g/ha, evaluated three weeks after application
Outline: as §1

[28] = evaluated three weeks after application
[29] = amount of applied herbicide 320 g/ha

CCCC(=O)Oc1c(C)nn(C)c(=O)c1-c1c(-c2ccc(F)cc2)sc2ccc(F)cc12 [2-002]
effect on persian speedwell (R) (persian speedwell [1]; 3 weeks after application): 5 (Herbicidal rate of 90% or more (almost completely withered)) | herbicidal effect rating, O: lambsquarters (lambsquarters [2]; 320 g/ha): 4 (Herbicidal rate of 70% or more and less than 90%) | herbicidal effect on H (barnyard grass), rating 0-5 (barnyard grass [3]): 5 (Herbicidal rate of 90% or more (almost completely withered)) | effect on southern crabgrass (F) (southern crabgrass [4]; 3 weeks after application): 5 (Herbicidal rate of 90% or more (almost completely withered)) | herbicidal effect rating, B: Japanese bulrush (Japanese bulrush): 0 (Herbicidal rate of 5% or less (almost no effect)) | effect on wild oat (I) (wild oat [5]; 3 weeks after application): 4 (Herbicidal rate of 70% or more and less than 90%) | effect on windgrass (L) (windgrass [6]; 3 weeks after application): 3 (Herbicidal rate of 40% or more and less than 70%) | effect on blackgrass (J) (blackgrass [7]; 3 weeks after application): 4 (Herbicidal rate of 70% or more and less than 90%) | herbicidal effect rating, K: Italian ryegrass (Italian ryegrass [8]; 320 g/ha): 5 (Herbicidal rate of 90% or more (almost completely withered)) | herbicidal effect rating, C: oval-leafed pondweed (oval-leafed pondweed): 3 (Herbicidal rate of 40% or more and less than 70%) | effect on lambsquarters (O) (lambsquarters [9]; 3 weeks after application): 5 (Herbicidal rate of 90% or more (almost completely withered)) | effect on velvetleaf (M) (velvetleaf [10]; 3 weeks after application): 5 (Herbicidal rate of 90% or more (almost completely withered)) | herbicidal effect rating, F: southern crabgrass (southern crabgrass [11]; 320 g/ha): 5 (Herbicidal rate of 90% or more (almost completely withered)) | effect on false cleavers (Q) (false cleavers [12]; 3 weeks after application): 5 (Herbicidal rate of 90% or more (almost completely withered)) | herbicidal effect on D (Chinese sprangletop), rating 0-5 (Chinese sprangletop): 5 (Herbicidal rate of 90% or more (almost completely withered)) | herbicidal effect rating, M: velvetleaf (velvetleaf [13]; 320 g/ha): 5 (Herbicidal rate of 90% or more (almost completely withered)) | herbicidal effect rating, I: wild oat (wild oat [14]; 320 g/ha): 3 (Herbicidal rate of 40% or more and less than 70%) | effect on barnyard grass (H) (barnyard grass [15]; 3 weeks after application): 5 (Herbicidal rate of 90% or more (almost completely withered)) | herbicidal effect on E (rice flat sedge), rating 0-5 (rice flat sedge): 5 (Herbicidal rate of 90% or more (almost completely withered)) | herbicidal effect rating, L: windgrass (windgrass [16]; 320 g/ha): 1 (Herbicidal rate of 5% or more and less than 20%) | herbicidal effect rating, H: barnyard grass (barnyard grass [17]; 320 g/ha): 4 (Herbicidal rate of 70% or more and less than 90%) | herbicidal effect rating, N: redroot pigweed (redroot pigweed [18]; 320 g/ha): 5 (Herbicidal rate of 90% or more (almost completely withered)) | herbicidal effect rating, Q: false cleavers (false cleavers [19]; 320 g/ha): 4 (Herbicidal rate of 70% or more and less than 90%) | herbicidal effect rating, G: green foxtail (green foxtail [20]; 320 g/ha): 5 (Herbicidal rate of 90% or more (almost completely withered)) | effect on Italian ryegrass (K) (Italian ryegrass [21]; 3 weeks after application): 5 (Herbicidal rate of 90% or more (almost completely withered)) | herbicidal effect rating, P: chickweed (chickweed [22]; 320 g/ha): 3 (Herbicidal rate of 40% or more and less than 70%) | herbicidal effect rating, J: blackgrass (blackgrass [23]): 1 (Herbicidal rate of 5% or more and less than 20%) | herbicidal effect rating, R: persian speedwell (persian speedwell [24]; 320 g/ha): 5 (Herbicidal rate of 90% or more (almost completely withered)) | effect on green foxtail (G) (green foxtail [25]; 3 weeks after application): 5 (Herbicidal rate of 90% or more (almost completely withered)) | herbicidal effect rating, A: late watergrass (late watergrass): 2 (Herbicidal rate of 20% or more and less than 40%)

CCCC(=O)Oc1c(C)nn(C)c(=O)c1-c1c(-c2ccc3c(c2)OCO3)sc2ccc(Cl)cc12 [2-126]
herbicidal effect on R: persian speedwell (persian speedwell [1]; [28]): 5 (Herbicidal rate of 90% or more (almost completely withered)) | O: lambsquarters, herbicidal effect rating (lambsquarters [2]; [29]): 2 (Herbicidal rate of 20% or more and less than 40%) | herbicidal effect on N: redroot pigweed (redroot pigweed [26]): 1 (Herbicidal rate of 5% or more and less than 20%) | herbicidal effect on F: southern crabgrass (southern crabgrass [4]; [28]): 0 (Herbicidal rate of 5% or less (almost no effect)) | herbicidal effect rating, B: Japanese bulrush (Japanese bulrush): 0 (Herbicidal rate of 5% or less (almost no effect)) | herbicidal effect on I: wild oat (wild oat [5]; [28]): 0 (Herbicidal rate of 5% or less (almost no effect)) | herbicidal effect on L: windgrass (windgrass [6]; [28]): 0 (Herbicidal rate of 5% or less (almost no effect)) | herbicidal effect on J: blackgrass (blackgrass [7]; [28]): 0 (Herbicidal rate of 5% or less (almost no effect)) | K: Italian ryegrass, herbicidal effect rating (Italian ryegrass [8]; [29]): 0 (Herbicidal rate of 5% or less (almost no effect)) | herbicidal effect rating, C: oval-leafed pondweed (oval-leafed pondweed): 2 (Herbicidal rate of 20% or more and less than 40%) | herbicidal effect on O: lambsquarters (lambsquarters [9]; [28]): 3 (Herbicidal rate of 40% or more and less than 70%) | herbicidal effect on M: velvetleaf (velvetleaf [10]; [28]): 3 (Herbicidal rate of 40% or more and less than 70%) | F: southern crabgrass, herbicidal effect rating (southern crabgrass [11]; [29]): 0 (Herbicidal rate of 5% or less (almost no effect)) | herbicidal effect on Q: false cleavers (false cleavers [12]; [28]): 2 (Herbicidal rate of 20% or more and less than 40%) | M: velvetleaf, herbicidal effect rating (velvetleaf [13]; [29]): 0 (Herbicidal rate of 5% or less (almost no effect)) | I: wild oat, herbicidal effect rating (wild oat [14]; [29]): 0 (Herbicidal rate of 5% or less (almost no effect)) | herbicidal effect on H: barnyard grass (barnyard grass [15]; [28]): 0 (Herbicidal rate of 5% or less (almost no effect)) | L: windgrass, herbicidal effect rating (windgrass [16]; [29]): 0 (Herbicidal rate of 5% or less (almost no effect)) | H: barnyard grass, herbicidal effect rating (barnyard grass [17]; [29]): 0 (Herbicidal rate of 5% or less (almost no effect)) | herbicidal effect on P: chickweed (chickweed [27]): 2 (Herbicidal rate of 20% or more and less than 40%) | N: redroot pigweed, herbicidal effect rating (redroot pigweed [18]; [29]): 0 (Herbicidal rate of 5% or less (almost no effect)) | Q: false cleavers, herbicidal effect rating (false cleavers [19]; [29]): 0 (Herbicidal rate of 5% or less (almost no effect)) | G: green foxtail, herbicidal effect rating (green foxtail [20]; [29]): 0 (Herbicidal rate of 5% or less (almost no effect)) | herbicidal effect on K: Italian ryegrass (Italian ryegrass [21]; [28]): 0 (Herbicidal rate of 5% or less (almost no effect)) | P: chickweed, herbicidal effect rating (chickweed [22]; [29]): 3 (Herbicidal rate of 40% or more and less than 70%) | R: persian speedwell, herbicidal effect rating (persian speedwell [24]; [29]): 4 (Herbicidal rate of 70% or more and less than 90%) | herbicidal effect on G: green foxtail (green foxtail [25]; [28]): 0 (Herbicidal rate of 5% or less (almost no effect)) | herbicidal effect rating, A: late watergrass (late watergrass): 0 (Herbicidal rate of 5% or less (almost no effect))

From patent US20230085307A1, “PYRIDAZINONE COMPOUND AND HERBICIDE” (NISSAN CHEMICAL CORPORATION, priority 2019, published 2023)
